The source made the active and inactive calls. The calls are words filed in the database; no cut-off is given here.
Tests used:
[1] = test system: Human immunodeficiency virus 1; assay: Antiviral activity against HIV-1 HE infected in wild-type human CEM/0 cells assessed as inhibition of virus-induced cytopathic effect incubated for 4 to 5 days by light microscopic analysis; assay type: functional, organism-based; settings: Human immunodeficiency virus 1, HE, CCRF-CEM
[2] = Retention time of the compound by HPLC analysis; assay type: physicochemical
[3] = test system: Human immunodeficiency virus 2; assay: Antiviral activity against HIV-2 ROD infected in wild-type human CEM/0 cells assessed as inhibition of virus-induced cytopathic effect incubated for 4 to 5 days by light microscopic analysis; assay type: functional, organism-based; settings: Human immunodeficiency virus 2, ROD, CCRF-CEM
[4] = Prodrug conversion in pH 7.3 phosphate buffer assessed as ((2S,5R)-5-(5-methyl-2,4-dioxo-3,4-dihydropyrimidin-1(2H)-yl)-2,5-dihydrofuran-2-yl)methyl dihydrogen phosphate formation by measuring half life in presence of pig liver esterase by HPLC analysis; assay type: ADME
[5] = biological target: DNA polymerase beta (Homo sapiens) (UniProt P06746); assay: Substrate activity at human DNA polymerase beta measured after 4 hrs by electrophoresis based primer extension assay
[6] = Prodrug conversion in human CEM/0 cell extract assessed as metabolite formation by measuring half life by HPLC analysis; assay type: ADME; settings: ccrf-cem
[7] = Cytotoxicity against human CEM cells assessed as reduction in cell viability incubated for 4 to 5 days by light microscopic analysis; assay type: toxicity, cell-based; settings: CEM cells (CCRF-CEM), time 4-5 day
[8] = Selectivity index, ratio of CC50 for human CEM cells to EC50 for HIV-2 ROD infected in thymidine kinase-deficient human CEM cells; assay type: toxicity; settings: read-out: Ratio CC50/EC50
[9] = Prodrug conversion in human CEM/0 cell extract assessed as ((2S,5R)-5-(5-methyl-2,4-dioxo-3,4-dihydropyrimidin-1(2H)-yl)-2,5-dihydrofuran-2-yl)methyl dihydrogen phosphate formation by HPLC analysis; assay type: ADME; settings: ccrf-cem
[10] = biological target: T1, DNA polymerase subunit gamma-1 (Homo sapiens) (UniProt P54098); assay: Substrate activity at human DNA polymerase gamma measured after 4 hrs by electrophoresis based primer extension assay
T1 sequence (whole entry): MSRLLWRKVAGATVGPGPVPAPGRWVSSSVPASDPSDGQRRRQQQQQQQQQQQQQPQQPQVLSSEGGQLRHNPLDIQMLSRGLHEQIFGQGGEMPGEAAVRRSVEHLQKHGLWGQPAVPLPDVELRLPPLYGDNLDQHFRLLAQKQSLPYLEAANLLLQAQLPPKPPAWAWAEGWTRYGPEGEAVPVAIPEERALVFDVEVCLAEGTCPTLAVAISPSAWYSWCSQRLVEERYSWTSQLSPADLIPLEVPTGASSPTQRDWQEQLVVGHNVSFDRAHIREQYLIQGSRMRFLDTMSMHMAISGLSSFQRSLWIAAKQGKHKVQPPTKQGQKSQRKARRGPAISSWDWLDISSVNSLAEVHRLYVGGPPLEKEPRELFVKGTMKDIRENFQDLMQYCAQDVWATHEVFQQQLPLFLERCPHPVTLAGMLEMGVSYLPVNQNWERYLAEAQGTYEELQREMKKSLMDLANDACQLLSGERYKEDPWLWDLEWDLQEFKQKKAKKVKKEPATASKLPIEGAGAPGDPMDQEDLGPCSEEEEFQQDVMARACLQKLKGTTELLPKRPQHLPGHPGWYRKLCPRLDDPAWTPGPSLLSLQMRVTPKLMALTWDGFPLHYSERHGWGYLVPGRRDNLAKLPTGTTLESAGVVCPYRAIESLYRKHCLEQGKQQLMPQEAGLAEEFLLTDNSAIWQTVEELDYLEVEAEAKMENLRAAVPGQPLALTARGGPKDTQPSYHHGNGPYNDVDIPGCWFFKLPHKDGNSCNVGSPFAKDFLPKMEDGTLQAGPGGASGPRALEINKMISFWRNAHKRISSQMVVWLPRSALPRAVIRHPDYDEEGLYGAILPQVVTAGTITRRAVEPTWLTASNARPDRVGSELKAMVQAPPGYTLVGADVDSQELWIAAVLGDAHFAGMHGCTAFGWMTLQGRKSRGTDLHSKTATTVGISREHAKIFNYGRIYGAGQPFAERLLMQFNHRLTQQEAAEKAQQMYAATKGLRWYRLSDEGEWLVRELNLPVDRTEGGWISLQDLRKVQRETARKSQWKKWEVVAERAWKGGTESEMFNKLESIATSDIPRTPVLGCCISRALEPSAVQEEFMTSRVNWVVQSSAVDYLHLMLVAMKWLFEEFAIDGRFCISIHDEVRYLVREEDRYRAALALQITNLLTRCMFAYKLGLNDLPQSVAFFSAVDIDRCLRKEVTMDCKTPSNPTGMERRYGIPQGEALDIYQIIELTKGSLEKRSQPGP

[11] = Chemical stability of the compound in phosphate buffer saline assessed as half life at pH 7.3 by HPLC analysis; assay type: physicochemical; settings: phosphate buffered saline
[12] = biological target: T2, DNA polymerase alpha catalytic subunit (Homo sapiens) (UniProt P09884); assay: Substrate activity at human DNA polymerase alpha measured after 4 hrs by electrophoresis based primer extension assay
T2 sequence (whole entry): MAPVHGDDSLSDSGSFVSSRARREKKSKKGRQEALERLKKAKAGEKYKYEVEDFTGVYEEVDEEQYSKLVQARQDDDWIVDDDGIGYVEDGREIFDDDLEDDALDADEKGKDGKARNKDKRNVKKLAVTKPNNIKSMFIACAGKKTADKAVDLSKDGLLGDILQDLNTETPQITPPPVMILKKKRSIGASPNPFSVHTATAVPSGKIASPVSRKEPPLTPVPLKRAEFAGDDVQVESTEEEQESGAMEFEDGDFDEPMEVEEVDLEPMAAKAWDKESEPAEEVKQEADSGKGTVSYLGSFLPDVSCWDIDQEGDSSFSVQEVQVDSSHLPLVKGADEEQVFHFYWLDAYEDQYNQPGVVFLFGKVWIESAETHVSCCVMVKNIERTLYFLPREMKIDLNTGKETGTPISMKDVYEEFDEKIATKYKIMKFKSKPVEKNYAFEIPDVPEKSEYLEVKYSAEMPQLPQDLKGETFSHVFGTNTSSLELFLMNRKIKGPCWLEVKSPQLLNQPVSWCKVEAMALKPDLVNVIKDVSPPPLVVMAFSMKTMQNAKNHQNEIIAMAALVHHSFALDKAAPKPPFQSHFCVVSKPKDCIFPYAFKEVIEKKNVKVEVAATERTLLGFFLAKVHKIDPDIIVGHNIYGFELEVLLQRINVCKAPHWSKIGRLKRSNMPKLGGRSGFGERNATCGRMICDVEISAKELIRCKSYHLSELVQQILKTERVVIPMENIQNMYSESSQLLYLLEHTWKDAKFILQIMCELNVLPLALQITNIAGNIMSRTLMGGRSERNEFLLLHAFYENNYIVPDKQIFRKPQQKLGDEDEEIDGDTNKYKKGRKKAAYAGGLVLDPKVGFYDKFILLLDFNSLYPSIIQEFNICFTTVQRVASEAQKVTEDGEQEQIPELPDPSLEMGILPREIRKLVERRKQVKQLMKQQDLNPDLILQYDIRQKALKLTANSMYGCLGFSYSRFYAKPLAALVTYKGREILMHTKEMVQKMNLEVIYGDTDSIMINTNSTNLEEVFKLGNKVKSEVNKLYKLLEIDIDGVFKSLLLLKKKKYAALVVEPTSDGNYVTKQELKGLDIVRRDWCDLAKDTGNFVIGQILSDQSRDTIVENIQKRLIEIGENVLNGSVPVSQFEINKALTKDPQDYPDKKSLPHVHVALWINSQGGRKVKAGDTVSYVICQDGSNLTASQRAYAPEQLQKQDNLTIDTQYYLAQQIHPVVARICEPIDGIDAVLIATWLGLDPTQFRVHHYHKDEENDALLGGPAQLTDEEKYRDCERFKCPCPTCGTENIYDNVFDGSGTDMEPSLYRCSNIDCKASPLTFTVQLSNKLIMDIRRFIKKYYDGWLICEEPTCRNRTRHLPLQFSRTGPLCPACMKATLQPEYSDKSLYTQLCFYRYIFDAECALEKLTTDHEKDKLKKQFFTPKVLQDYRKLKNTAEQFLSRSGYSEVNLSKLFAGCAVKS

[13] = test system: Human immunodeficiency virus 2; assay: Antiviral activity against HIV-2 ROD infected in thymidine kinase-deficient human CEM cells assessed as inhibition of virus-induced cytopathic effect incubated for 4 to 5 days by light microscopic analysis; assay type: functional, organism-based; settings: Human immunodeficiency virus 2, ROD, CCRF-CEM
[14] = Prodrug conversion in human CEM/0 cell extract assessed as ((2S,5R)-5-(5-methyl-2,4-dioxo-3,4-dihydropyrimidin-1(2H)-yl)-2,5-dihydrofuran-2-yl)methyl tri-hydrogen diphosphate formation by HPLC analysis; assay type: ADME; settings: ccrf-cem
[15] = Prodrug conversion in pH 7.3 phosphate buffer assessed as ((2S,5R)-5-(5-methyl-2,4-dioxo-3,4-dihydropyrimidin-1(2H)-yl)-2,5-dihydrofuran-2-yl)methyl tri-hydrogen diphosphate formation by measuring half life in presence of pig liver esterase by HPLC analysis; assay type: ADME
[16] = test system: Human immunodeficiency virus 2; assay: Potency index, ratio of 3'-deoxy-2',3'-dehydrothymidine EC50 to compound EC50 for antiviral activity against HIV-2 ROD infected in thymidine kinase-deficient human CEM[…] cells; assay type: functional
[17] = Chemical stability of the compound in phosphate buffer assessed as half life at pH 7.3 by HPLC analysis; assay type: physicochemical
[18] = test system: Human immunodeficiency virus 1; assay: Potency index, ratio of 3'-deoxy-2',3'-dehydrothymidine EC50 to compound EC50 for antiviral activity against HIV-1 HE infected in wild-type human CEM/0 cells; assay type: functional
[19] = test system: Human immunodeficiency virus 2; assay: Potency index, ratio of 3'-deoxy-2',3'-dehydrothymidine EC50 to compound EC50 for antiviral activity against HIV-2 ROD infected in wild-type human CEM/0 cells; assay type: functional
[20] = test system: Human immunodeficiency virus; assay: Substrate activity at HIV reverse transcriptase measured after 4 hrs by electrophoresis based primer extension assay

Row | Structure (SMILES) | EC50 [1] [nM] | Retention_time [2] [min] | EC50 [3] [nM] | Activity [5] | Drug metabolism [6] | CC50 [7] [nM] | selectivity ratio [8] | Drug metabolism [9] | Activity [10] | half-life [11] [days] | Activity [12] | EC50 [13] [nM] | Drug metabolism [14] | Drug metabolism [15] | Ratio EC50 [16] | half-life [17] [days] | Ratio EC50 [18] | Ratio EC50 [19] | Activity [20] | t1/2 [6] [days] | also measured
1 | CCCCCCCCCCCCCCCCCCOP(=O)(OCCCCCCCC)OP(=O)(O)OC[C@@H]1C=C[C@H](n2cc(C)c(=O)[nH]c2=O)O1.N (stereo partly specified) | 71 | 20.8 | 45 | inactive | Metabolite_Notdetected | 46500 | 4220 | Metabolite_Detected | inactive | > 41.7 | inactive | 11 | Metabolite_Notdetected |  |  |  |  |  |  |  | Drug metabolism [4]: Metabolite_Notdetected
2 | CCCCCCCCCCCCCCCCCCP(=O)(OCCCCCCCCCCCC)OP(=O)(O)OP(=O)(O)OC[C@@H]1C=C[C@H](n2cc(C)c(=O)[nH]c2=O)O1.N.N (stereo partly specified) | 130 | 18.9 | 210 | inactive | Metabolite_Notdetected | 50000 | 143 |  | inactive |  | inactive | 350 |  | Metabolite_Notdetected | 10000 | 34.6 | 4 | 4 |  |  | 
3 | CCCCCCCCCCCCCCCCCCOP(=O)(OCC(CC)CCCC)OP(=O)(O)OP(=O)(O)OC[C@@H]1C=C[C@H](n2cc(C)c(=O)[nH]c2=O)O1.N.N (stereo partly specified) | 75 | 17.3 | 36 | inactive | Metabolite_Notdetected | 34000 | 6800 |  | inactive |  | inactive | 5 |  | Metabolite_Notdetected | 10000 | > 83.3 | 4 | 4 | Active |  | 
4 | CCCCCCCCCCCCCCCCCCP(=O)(OCCCC)OP(=O)(O)OC[C@@H]1C=C[C@H](n2cc(C)c(=O)[nH]c2=O)O1.N (stereo partly specified) | 31 | 18.5 | 16 | inactive |  | 42600 | 20300 | Metabolite_Detected | inactive | > 125 | inactive | 2 | Metabolite_Notdetected |  |  |  |  |  | Active | > 1.67 | t1/2 [4]: > 6.25 days
5 | CCCCCCCCCCCCCCCCCCOP(=O)(OC)OP(=O)(O)OP(=O)(O)OC[C@@H]1C=C[C@H](n2cc(C)c(=O)[nH]c2=O)O1.N.N (stereo partly specified) | 77 | 15.6 | 25 | inactive |  | 34000 | 2270 |  | inactive |  | inactive | 15 |  |  | 10000 | 32.9 | 4 | 4 | Active | > 0.625 | t1/2 [15]: > 6.25 days
6 | CCCCCCCCCCCCCCCCCCP(=O)(OCC(CC)CCCC)OP(=O)(O)OP(=O)(O)OC[C@@H]1C=C[C@H](n2cc(C)c(=O)[nH]c2=O)O1.N.N (stereo partly specified) | 90 | 17.1 | 140 | inactive | Metabolite_Notdetected | 42000 | 175 |  | inactive |  | inactive | 240 |  | Metabolite_Notdetected | 10000 | > 41.7 | 4 | 4 |  |  | 

Source: ChEMBL document CHEMBL5365447, “Pronucleotides of 2',3'-Dideoxy-2',3'-Didehydrothymidine as Potent Anti-HIV Compounds” (J Med Chem, 2023)
